Laboratory results: paper PMC5046141, “Discovery of Isoquinolinoquinazolinones as a Novel Class of Potent PPARγ Antagonists with Anti-adipogenic Effects” (Scientific Reports, 2016)

Experiments:
3T3-L1 preadipocytes = test: Oil Red O staining assay of adipocyte differentiation; assay type: cell-based, mouse; settings: for inhibition at 25 µM: Mus musculus, 3T3-L1, relative absorbance from Oil Red O staining at 25 μM, read-out: Inhibitory activity (%) on adipocyte differentiation
Experimental: The GW9662-mediated inhibition of PPARγ was confirmed using an Oil Red O staining assay to measure adipocyte differentiation. To investigate whether the novel compounds could inhibit adipocyte differentiation, 3T3-L1 preadipocytes were incubated with differentiation medium (MDI; insulin, dexamethasone, and isobutyl methyl xanthine) in the presence of increasing concentrations of isoquinolinoquinazolinones. Adipogenesis was analyzed using Oil Red O staining after treatment with the compounds.
The mouse preadipocyte cell line 3T3-L1 was maintained at 37 °C in humidified air with 5% CO2. 3T3-L1 cells were cultured in Dulbecco’s modified Eagle medium (DMEM; Life Technologies) supplemented with 10% bovine serum (BS; Gibco Invitrogen, Carlsbad, California, USA) as growth medium. For adipocyte differentiation, cells were cultured for 2 days to full confluence in a 24-well plate and the growth medium was then replaced (day 0) with DMEM supplemented with 10% fetal bovine serum (FBS, Gibco Invitrogen, Carlsbad, California, USA), 5 μg/mL insulin (Sigma, St. Louis, Missouri, USA), 0.5 mM 3-isobutyl-1-methylxanthine (Sigma), and 1 μM dexamethasone (Sigma). After 48 h, the differentiation medium was replaced (day 2) with DMEM + 10% FBS containing 5 μg/mL insulin, and the cells were allowed to accumulate lipid droplets until experimental use.
The accumulation of lipids signifying the formation of adipocytes was observed by staining the differentiated cells with Oil Red O. Following differentiation, cells were washed twice with phosphate-buffered saline (PBS), fixed with 10% formalin for 60 min. Oil Red O stock solution (0.5%) was prepared in isopropanol and filtered in cellulose nitrate filters. Cells were stained with Oil Red O diluted 6:4 in water for 1 h at room temperature. Excess Oil Red O dye was washed off twice with distilled water and then dried. The stained lipid droplets within cells were visualized using an optical microscope and photographed with a digital camera at 100× magnification.

PPARγ2 = target: T1, PPARγ2 (Mus musculus, UniProt P37238); test: PPRE-Luc luciferase reporter assay of PPARγ2-induced transcriptional activity in 3T3-L1 cells; assay type: cell-based
T1 construct: expressed in transfected cells; host or cells: 3T3-L1 (mouse preadipocytes), pCS4 CMV vector
T1 sequence (P37238 1-505): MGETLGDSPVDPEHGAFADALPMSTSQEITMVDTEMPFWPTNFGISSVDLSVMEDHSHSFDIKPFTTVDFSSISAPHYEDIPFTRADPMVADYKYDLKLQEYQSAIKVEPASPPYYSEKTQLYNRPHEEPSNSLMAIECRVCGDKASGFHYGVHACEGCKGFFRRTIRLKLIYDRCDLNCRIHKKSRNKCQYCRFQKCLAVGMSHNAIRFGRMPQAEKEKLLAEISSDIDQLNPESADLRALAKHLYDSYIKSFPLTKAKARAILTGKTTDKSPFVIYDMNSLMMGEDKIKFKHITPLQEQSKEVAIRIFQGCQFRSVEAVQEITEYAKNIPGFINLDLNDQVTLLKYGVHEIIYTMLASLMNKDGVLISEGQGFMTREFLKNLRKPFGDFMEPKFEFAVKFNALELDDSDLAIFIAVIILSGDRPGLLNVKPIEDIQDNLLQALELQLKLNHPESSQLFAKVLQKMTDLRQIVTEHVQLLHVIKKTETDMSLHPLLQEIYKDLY
Experimental: To analyze whether isoquinolinoquinazolinones inhibit the transactivation of PPARγ, 3T3-L1 cells were cotransfected with full-length PPARγ2 expression vector with a peroxisome proliferator response element (PPRE)-driven luciferase reporter gene (PPRE-Luc) that has been reported to respond to PPARγ[23][24]. […] Titration curves were generated using Graph Pad Prism®, and the IC50 value of each compound with respect to PPARγ2-induced transcriptional activity was determined.
The transcription activity was determined in 3T3-L1 cells transiently co-transfected with PPRE-driven luciferase reporter gene (PPRE-Luc) and PPARγ2 expression vector. […] After 24 h of transfection, the cells were cultured with indicated combination for 12 h. Luciferase activity was measured after 36 h.
For plasmids expressing PPARγ2, full length PPARγ2 (mouse, 1518 bp: NCBI Reference Sequence: NP_035276.2) was subcloned into CMV promoter-derived mammalian expression vector (pCS4). Plasmids for C285G, R288G mutant PPARγ2 were generated by PCR-based site-directed mutagenesis and also subcloned into CMV promoter-derived mammalian expression vector (pCS4).
3T3-L1 cells were transfected for indicated combinations of expression plasmids along with a luciferase reporter plasmid (PPRE-Luc). PPRE-Luc contains the consensus PPAR responsive element (PPRE). pCMV-β-gal was co-transfected for normalization of transfection efficiency. 24 h after transfection, cells were treated with indicated compounds for 12 h. Luciferase activities were measured using a luciferase reporter assay kit (Promega, Madison, WI, USA). Experiments were performed in triplicate and repeated at least three times.

Row | melting point [°C] | Compound | inhibition at 25 µM (3T3-L1 preadipocytes) [%] | other results
1 | – | 6,8-Dihydro-5H-isoquinolino[2,3-c]quinazoline [Compound 9] | – | Inhibitory activity (%) on adipocyte differentiation (3T3-L1 preadipocytes; relative absorbance from Oil Red O staining at 25 μM): 62.5%
2 | – | COc1ccc2cc3[n+](cc2c1OC)CCc1cc2c(cc1-3)OCO2 [Berberine] | 71.4 | inhibition of PPARγ2 transfection (transcriptional activity), with rosiglitazone stimulation (PPARγ2; 5 μM, with rosiglitazone): 40%; inhibition of PPARγ2 transfection (transcriptional activity), compound alone (PPARγ2; 5 μM, without rosiglitazone): 33%; IC50 (PPARγ2; 3T3-L1 cotransfected with PPARγ2 and PPRE-Luc, read-out: IC50 with respect to PPARγ2-induced transcriptional activity): 6.63 µM
3 | 204.3 to 206.3 | O=c1c2ccccc2cc2n1CNc1ccccc1-2 [Compound 8a, 5H-Isoquinolino[2,3-c]quinazolin-8(6H)-one] | 53 | –
4 | 226.5 to 228.1 | Cc1cccc2c(=O)n3c(cc12)-c1ccccc1NC3 [Compound 8b] | 49 | –
5 | 240.5 to 242.1 | Cc1cccc2c(=O)n3c(cc12)-c1cc(Cl)ccc1NC3 [Compound 8c] | 30.9 | –
6 | 119.1 to 120.4 | Cc1ccc2c(=O)n3c(cc2c1)-c1ccccc1NC3 [Compound 8d] | 53.9 | –
7 | 210 to 211.5 | Cc1ccc2c(=O)n3c(cc2c1)-c1ccc(Cl)cc1NC3 [Compound 8e] | 63.3 | –
8 | 213.2 to 214.5 | Cc1ccc2cc3n(c(=O)c2c1)CNc1ccccc1-3 [Compound 8f] | 28.6 | –
9 | 202.6 to 205.1 | Cc1ccc2cc3n(c(=O)c2c1)CNc1ccc(Cl)cc1-3 [Compound 8g] | 42.4 | –
10 | 212.7 to 214.2 | Cc1cc2cc3n(c(=O)c2cc1C)CNc1ccccc1-3 [Compound 8h] | 41.6 | –
11 | 268.7 to 270.6 | Cc1cc2cc3n(c(=O)c2cc1C)CNc1ccc(Cl)cc1-3 [Compound 8i] | 49.8 | –
12 | 235.1 to 236.4 | Cc1cc2cc3n(c(=O)c2cc1C)CNc1cc(Cl)ccc1-3 [Compound 8j] | 53 | –
13 | 145.4 to 148 | COc1ccc2c(=O)n3c(cc2c1)-c1ccccc1NC3 [Compound 8k] | 56.1 | –
14 | 213.6 to 215.1 | COc1ccc2c(=O)n3c(cc2c1)-c1ccc(Cl)cc1NC3 [Compound 8l] | 39.1 | –
15 | 203.9 to 205.2 | COc1ccc2c(=O)n3c(cc2c1)-c1cc(Cl)ccc1NC3 [Compound 8m] | 28.1 | –
16 | – | Cc1cccc2c(=O)n3c(cc12)-c1ccccc1OC3 [Compound 10a] | 23.6 | –
17 | – | Cc1ccc2c(=O)n3c(cc2c1)-c1ccccc1OC3 [Compound 10b] | 25.7 | –
18 | – | Cc1cc2cc3n(c(=O)c2cc1C)COc1ccccc1-3 [Compound 10c] | 60.4 | –
19 | – | COc1ccc2c(=O)n3c(cc2c1OC)-c1ccccc1OC3 [Compound 10d] | 62.5 | –
20 | – | Cc1cccc2c(=O)n3c(cc12)-c1cc2c(cc1OC3)OCO2 [Compound 10e] | 44.8 | –
21 | – | Cc1ccc2c(=O)n3c(cc2c1)-c1cc2c(cc1OC3)OCO2 [Compound 10f] | 30.5 | –
22 | – | Cc1ccc2cc3n(c(=O)c2c1)COc1cc2c(cc1-3)OCO2 [Compound 10g] | 40.9 | –
23 | – | Cc1cc2cc3n(c(=O)c2cc1C)COc1cc2c(cc1-3)OCO2 [Compound 10h] | 38.8 | –
24 | – | CN(CCOc1ccc(CC2SC(=O)NC2=O)cc1)c1ccccn1 (stereo not shown) [Rosiglitazone] | – | increase of luciferase expression (PPARγ2; rosiglitazone treatment, PPRE-Luc): up to 3 fold
